Assay results: patent US7964341B2, “Human endogenous retrovirus K102 with foamy-virus-like properties and uses thereof” (priority 2005, dated 2011)

System: HERV-K102 replication (cDNA production) in cultured cord blood cells
Test: Screening for agents able to modulate HERV-K102 replication (cDNA production) in cultured cord blood cells, real time PCR ddCt ratio
Format: cell-based, human
Settings: for effect on HERV-K102 replication in cultured CB cells: approximately 10^-6 M or equivalent, harvested day 5
Excerpt: First we wished to show in normal lymphocytes that there are increased levels of HERV-K102 pol DNA over and above genomic when HERV-K102 associated particles are made. For this we extracted DNA and then performed the HERV-K102 ddCt ratio. Please see FIG. 15 for the sequences and location of the forward and reverse primers and the probe used for the real time PCR. […] We developed a ddCt ratio real time PCR method (relative quantitation) which takes the difference between HERV-K102 pol and 18 s RNA Ct's (delta Ct), and subtracts this from the same performed on commercial normal adult genomic DNA (male) (the delta delta Ct). Then we use the algorithm 2−(ddCt) to calculate the relative ratio of HERV-K102 to genomic DNA. This index when elevated above normal ratios (see Table 3 for these ratios) for fluids with contaminating cells (eg plasma and saliva) indicates an excess of non-genomic DNA templates and could be taken as a surrogate marker for putative particles in the sample. […] Since real time PCR is so sensitive, and we were only interested in the DNA copy number of HERV-K102 pol, we subsequently used the Qiagen DNA Mini kit for DNA extractions of plasma.
Commercially available master mix buffer can be purchased with or without Amperase-UNG a highly purified enzyme Uracil-N-Glycosylase, which when included in the buffer for the real time PCR will digest any DNA or cDNA templates containing uracil. […] Thus, if any isolated DNA becomes digested it must be non-genomic.
Finally we investigated certain natural products, drugs and peptide cytokines for their ability to regulate HERV-K replication such as measured in CB cells (Table 7). These agents were tested at approximately 10^−6 M or equivalent. We harvested the study on day 5. […] Tuftsin is naturally cleaved from the FC region of IgG and is considered an immunoenhancing substance and the 1/5000 concentration is usually employed to show its enhancing effects on the activation of monocytes.
Cord blood (CB) isolation. Under aseptic conditions, cord blood was collected into heparinized tubes and peripheral blood mononuclear cells (PBMC) were prepared as follows: the blood was centrifuged at 2700 rpm for 10 minutes, and the buffy coat placed in 5 mls of media (defined as IMDM plus 0.2% penicillin/gentamycin). The mixture was layered onto Ficoll-Paque (Pharmacia #17-0840-03) in a ratio of 1/3 Ficoll to blood suspension. The tubes were centrifuged 30 minutes at 1600 rpm.

[1] = cord blood harvested Day 5, agents at approximately 10^-6 M or equivalent, Day 5 control 2.19
[2] = cord blood harvested Day 5, agents at approximately 10^-6 M or equivalent, relative to Day 5 control ddCt ratio
[3] = cord blood Day 5, uracil-N-glycosylase in master mix, agents at approximately 10^-6 M or equivalent
[4] = Tuftsin 1/5000, cord blood Day 5

| Compound | effect on HERV-K102 replication in cultured CB cells | HERV-K102 ddCt Ratio [1] | Level of Control Activity (%) [2] | ddCt performed with UNG [3] | other results |
| --- | --- | --- | --- | --- | --- |
| C[C@]12CC[C@H](O)CC1=CC[C@@H]1[C@@H]2CC[C@]2(C)C(=O)CC[C@@H]12 [DHEA, dihydroepiandrosterone] | enhanced HERV-K102 replication | 2.60 | 119% |  |  |
| C[C@]12CC[C@@H]3c4ccc(O)cc4CC[C@H]3[C@@H]1CC[C@@H]2O [E2, estradiol] |  |  | 133% |  |  |
| CC1=C(c2ccc(O)cc2)[C@H](c2ccc(OCCN3CCCCC3)cc2)Oc2cc(O)ccc21 [EM652] | enhanced HERV-K102 replication | 3.07 | 140% | 2.06 (100%) |  |
| CC/C(=C(\c1ccccc1)c1ccc(OCCN(C)C)cc1)c1ccccc1 [Tamoxifen, tamoxifen] | enhanced HERV-K102 replication | 3.43 | 157% | 2.64 (63%) |  |
| Tuftsin |  |  |  |  | Level of Control Activity (%) (Tuftsin 1/500, cord blood Day 5): 65.7%; HERV-K102 ddCt Ratio (Tuftsin 1/500, cord blood Day 5, control 2.19): 1.44; Level of Control Activity (%) [4]: 189%; ddCt performed with UNG [4]: 2.10; HERV-K102 ddCt Ratio (Tuftsin 1/5000, cord blood Day 5, control 2.19): 4.14; effect on HERV-K102 replication (Tuftsin at high levels (1/500)): inhibited HERV-K102 replication; effect on HERV-K102 replication (Tuftsin at low levels (1/5000)): enhanced HERV-K102 replication; effect on HERV-BZU activation (depending on concentration, refers to Table 7): can enhance or inhibit HERV-BZU activation |
